Converted amounts (≈) assume the structure as drawn. “And” between values parts separate entries of the source, which are not always exact repeats. Equal entries are not always repeated.

Assay [1] relates to Klebsiella pneumoniae DSM30104. Type of assay: cell-based. To be noted: CAMHII, 18 h, at least 85 % growth inhibition. As to the method: (§1) For details, see the supplemental material.
(§2) 146 Mueller Hinton 2 broth (CAMHII). Darobactins were screened in 12 concentrations
(§3) The same concentrations were tested for
(§4) 148 rifampicin, tetracycline and gentamycin as positive controls. For tetracycline resistant
(§5) 151 Bacteria suspension without supplemented standard antibiotics or Darobactin
(§6) 152 was used as negative control.
(§7) 154 spectrophotometer at 600 nm. […]
(§8) 172 performed at least in triplicate.

A further assay relates to E. coli K0416. Type of assay: cell-based, Escherichia coli. To be noted: CAMHII, 18 h, at least 85 % growth inhibition. As to the method: as §1, §2, §3, §4, §5, §6, §7
(§9) 171 control. After 24 h incubation, the MIC was determined. All MIC assays were
as §8

The test system of the next assay is E. coli MMGI1. Type of assay: cell-based, Escherichia coli. The conditions noted are these: CAMHII, 18 h, at least 85 % growth inhibition. The method, then: as §1, §2, §3, §4, §5, §6, §7, §9, §8
In another assay the test system is E. coli NRZ14408. Type of assay: cell-based, Escherichia coli. The conditions noted are these: CAMHII, 18 h, at least 85 % growth inhibition. As to the method: as §1, §2, §3, §4, §5, §6, §7, §9, §8
The next assay deals with E. coli Survcare052. Type of assay: cell-based, Escherichia coli. The conditions noted are these: CAMHII, 18 h, at least 85 % growth inhibition. The method, then:
as §1, §2, §3, §4, §5, §6, §7, §9, §8

For assay [2], the system named is Acinetobacter baumannii ATCC 19606. It counts as cell-based. The conditions noted are these: CAMHII, 18 h, at least 85 % growth inhibition. As to the method: as §1, §2, §3, §4, §5, §6, §7, §9, §8
Assay [3] concerns Escherichia coli ATCC 35218. Type of assay: cell-based. To be noted: CAMHII, 18 h, at least 85 % growth inhibition. The method, then:
as §1, §2, §3, §4, §5, §6, §7, §9, §8

In assay [4] the test system is Salmonella enterica ATCC 13076. It counts as cell-based. The conditions noted are these: CAMHII, 18 h, at least 85 % growth inhibition. The method, then:
as §1, §2, §3, §4, §5, §6, §7, §9, §8

The test system of assay [5] is panel of clinically relevant Gram-negative pathogens. The experiment in a line: MIC comparison with DAR A over the panel of test strains. The conditions noted are these: whole panel of test strains (Table 2). It counts as cell-based. As to the method:
Therefore, additional clinical isolates of A. baumannii were tested.
as §1, §2, §3, §4, §5, §6
154 spectrophotometer at 600 nm. The MIC was defined as the minimum concentration
157 dilution as well, but without shaking. In aerobic conditions, overnight cultures of K.
Exponential cultures (OD 600 of
163 of test compound solutions diluted serially two-fold. After overnight incubation at 37 °C,
The MIC against Salmonella
167 conditions. Overnight cultures grown in brain–heart infusion (BHI) broth,
as §9, §8

A further assay concerns various E. coli strains. The assay is described as follows: MIC comparison with DAR A against E. coli strains. It counts as cell-based, Escherichia coli.
Text: New antibiotics, such as darobactin, with potency against these pathogens are desperately needed. […] This can be explained by the fact that this is the only derivative investigated not ending with the amino acid phenylalanine, which represents the most frequent amino acid of known and putative β signals from bacterial OM proteins ([7]). Therefore, DAR F would not block the β signal binding site and, thus, would not inhibit the function of BamA. […] Since Ser2 should eliminate the side chain interactions existing between Asn2 and Lys808 and Asn427 of the BamA β1 strand, it is likely that this greatly reduces DAR E’s affinity for the target and, thus, reduces its potency. In contrast to DAR A, DAR D carries an arginine in position 5 instead of lysine. If DAR A is bound to BamA, the Lys5 side chain points away from BamA, thereby enabling interaction with the negatively charged phosphate groups of phosphatidylglycerol and cardiolipin lipids ([7]). Supposedly, arginine could act similarly in the place of lysine, as arginine attracts more phosphate than lysine in membranes and can form more hydrogen bonds with phosphate clusters than lysine ([16]). Arginine is also capable of cardiolipin binding, a further important aspect of DAR and BamA binding ([17]).
as §1
146 Mueller Hinton 2 broth (CAMHII). Darobactins were screened in 12 concentrations […]

Consider `N=C(N)NCCC1c2ccc3c(c[nH]c3c2)C2Oc3cccc4c(c[nH]c34)C[C@H](N)C(=O)N[C@@H](CC(N)=O)C(=O)N[C@@H]2C(=O)N[C@@H](CO)C(=O)N[C@@H]1C(=O)N[C@@H](CO)C(=O)N[C@@H](Cc1ccccc1)C(=O)O` (stereo partly shown) [DAR D, darobactin D], for which the MIC in assay [1] is 64 µg/mL (≈ 64.4 µM); in the assay with E. coli K0416, 32 µg/mL (≈ 32.2 µM); with E. coli MMGI1, 64 µg/mL (≈ 64.4 µM); against E. coli NRZ14408 it was 64 µg/mL (≈ 64.4 µM); with E. coli Survcare052, more than 64 µg/mL; in assay [2], more than 64 µg/mL. For the same compound, the MIC in assay [3] and in [4] was 64 µg/mL (≈ 64.4 µM) in each case. The “fold-higher MIC values than DAR A” value in [5] is 8- to 16 fold and 16 fold.
As for `NCCCC1c2ccc3c(c[nH]c3c2)C2Oc3cccc4c(c[nH]c34)C[C@H](N)C(=O)N[C@@H](CO)C(=O)N[C@@H]2C(=O)N[C@@H](CO)C(=O)N[C@@H]1C(=O)N[C@@H](CO)C(=O)N[C@@H](Cc1ccccc1)C(=O)O` (stereo partly shown) [DAR E, darobactin E], the MIC is 32 µg/mL (≈ 34.1 µM) in assay [1]; 32 µg/mL (≈ 34.1 µM) in the assay with E. coli K0416; 32 µg/mL (≈ 34.1 µM) against E. coli MMGI1; 32 µg/mL (≈ 34.1 µM) in the assay with E. coli NRZ14408; 64 µg/mL (≈ 68.2 µM) in the assay with E. coli Survcare052; more than 64 µg/mL in [2]. The MIC in assay [3] and in assay [4] was 32 µg/mL (≈ 34.1 µM) throughout. Besides, the “fold-higher MIC values than DAR A” value in [5] is 8- to 16 fold. Further, in the assay on various E. coli strains, the “fold decrease in potency compared to DAR A” value is 8- to 16 fold.

In general, MIC refers to the least concentration at which growth counts as inhibited.

The values above are taken from article PMC8694152, “Mutasynthetic Production and Antimicrobial Characterization of Darobactin Analogs” (Microbiology Spectrum, 2021).
